Test results as given in patent US20250051344A1, “BIFUNCTIONAL SELECTIVE DEGRADERS OF SMARCA2 AND THERAPEUTIC USES THEREOF” (Nurix Therapeutics, Inc., priority 2023, published 2025).

Key:
[1] = target: T1, SMARCA4 (Homo sapiens, UniProt P51532); test: Cellular degradation assay, SMARCA4 (Table 1); format: cell-based
T1 construct: endogenous in cells

[2] = target: T2, SMARCA2 (Homo sapiens, UniProt P51531); test: SMARCA2 Cellular Degradation Assay (Western blot analysis on Jess platform); format: cell-based; conditions: for DC50 / Dmax: cellular degradation; for Fold Selectivity SMARCA4/2: ratio DC50 SMARCA4 / DC50 SMARCA2
T2 construct: endogenous in cells
Method in brief: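 Lysates of cells extracted from tumors, 5 μg total protein per capillary, were probed for SMARCA2 and β-actin by capillary Western on Jess using chemiluminescence and fluorescence detection. SMARCA2 peak area was background-subtracted and normalized to actin, then expressed as % remaining relative to vehicle control.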

T2 sequence (P51531 whole entry, species assumed): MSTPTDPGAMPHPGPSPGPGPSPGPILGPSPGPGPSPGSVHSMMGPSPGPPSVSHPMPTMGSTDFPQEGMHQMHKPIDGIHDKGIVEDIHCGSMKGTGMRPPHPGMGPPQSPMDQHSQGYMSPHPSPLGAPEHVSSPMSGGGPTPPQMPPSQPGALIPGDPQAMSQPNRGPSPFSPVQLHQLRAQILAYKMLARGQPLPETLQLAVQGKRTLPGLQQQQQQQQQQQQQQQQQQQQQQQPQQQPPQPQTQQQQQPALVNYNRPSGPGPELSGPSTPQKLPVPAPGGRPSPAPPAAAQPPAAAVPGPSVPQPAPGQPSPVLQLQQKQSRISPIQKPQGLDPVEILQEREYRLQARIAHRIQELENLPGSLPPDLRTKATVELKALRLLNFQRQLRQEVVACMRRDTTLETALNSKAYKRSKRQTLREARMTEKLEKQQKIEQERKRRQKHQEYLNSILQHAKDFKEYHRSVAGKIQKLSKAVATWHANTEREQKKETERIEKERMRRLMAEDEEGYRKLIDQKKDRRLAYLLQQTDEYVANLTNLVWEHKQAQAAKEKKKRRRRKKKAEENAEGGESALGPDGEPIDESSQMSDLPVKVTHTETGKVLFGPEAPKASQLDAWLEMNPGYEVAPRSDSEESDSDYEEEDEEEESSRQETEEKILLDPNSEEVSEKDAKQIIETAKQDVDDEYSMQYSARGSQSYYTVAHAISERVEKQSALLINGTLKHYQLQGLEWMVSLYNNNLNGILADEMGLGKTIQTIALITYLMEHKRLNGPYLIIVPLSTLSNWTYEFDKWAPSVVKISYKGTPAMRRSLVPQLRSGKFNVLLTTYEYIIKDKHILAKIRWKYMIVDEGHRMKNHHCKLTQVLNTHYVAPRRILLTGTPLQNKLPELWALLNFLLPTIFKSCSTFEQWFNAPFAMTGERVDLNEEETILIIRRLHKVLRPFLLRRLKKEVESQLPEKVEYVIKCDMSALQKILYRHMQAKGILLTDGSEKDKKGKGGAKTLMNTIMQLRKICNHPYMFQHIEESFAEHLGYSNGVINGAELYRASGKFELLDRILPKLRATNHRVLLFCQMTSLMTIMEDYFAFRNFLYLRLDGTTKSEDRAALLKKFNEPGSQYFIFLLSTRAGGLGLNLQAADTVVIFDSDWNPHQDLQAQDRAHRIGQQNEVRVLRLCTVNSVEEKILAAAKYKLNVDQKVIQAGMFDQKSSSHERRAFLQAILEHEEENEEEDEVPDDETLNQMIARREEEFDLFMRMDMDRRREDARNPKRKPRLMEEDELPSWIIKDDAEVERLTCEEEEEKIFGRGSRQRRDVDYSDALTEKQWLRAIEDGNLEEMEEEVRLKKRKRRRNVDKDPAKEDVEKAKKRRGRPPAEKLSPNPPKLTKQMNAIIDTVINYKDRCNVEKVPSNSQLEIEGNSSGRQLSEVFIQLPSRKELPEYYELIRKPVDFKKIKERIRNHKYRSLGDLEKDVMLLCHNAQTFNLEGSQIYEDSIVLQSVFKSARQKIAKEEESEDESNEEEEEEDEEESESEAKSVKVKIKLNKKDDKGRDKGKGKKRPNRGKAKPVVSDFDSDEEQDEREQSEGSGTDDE
T1 sequence (P51532 whole entry, species assumed): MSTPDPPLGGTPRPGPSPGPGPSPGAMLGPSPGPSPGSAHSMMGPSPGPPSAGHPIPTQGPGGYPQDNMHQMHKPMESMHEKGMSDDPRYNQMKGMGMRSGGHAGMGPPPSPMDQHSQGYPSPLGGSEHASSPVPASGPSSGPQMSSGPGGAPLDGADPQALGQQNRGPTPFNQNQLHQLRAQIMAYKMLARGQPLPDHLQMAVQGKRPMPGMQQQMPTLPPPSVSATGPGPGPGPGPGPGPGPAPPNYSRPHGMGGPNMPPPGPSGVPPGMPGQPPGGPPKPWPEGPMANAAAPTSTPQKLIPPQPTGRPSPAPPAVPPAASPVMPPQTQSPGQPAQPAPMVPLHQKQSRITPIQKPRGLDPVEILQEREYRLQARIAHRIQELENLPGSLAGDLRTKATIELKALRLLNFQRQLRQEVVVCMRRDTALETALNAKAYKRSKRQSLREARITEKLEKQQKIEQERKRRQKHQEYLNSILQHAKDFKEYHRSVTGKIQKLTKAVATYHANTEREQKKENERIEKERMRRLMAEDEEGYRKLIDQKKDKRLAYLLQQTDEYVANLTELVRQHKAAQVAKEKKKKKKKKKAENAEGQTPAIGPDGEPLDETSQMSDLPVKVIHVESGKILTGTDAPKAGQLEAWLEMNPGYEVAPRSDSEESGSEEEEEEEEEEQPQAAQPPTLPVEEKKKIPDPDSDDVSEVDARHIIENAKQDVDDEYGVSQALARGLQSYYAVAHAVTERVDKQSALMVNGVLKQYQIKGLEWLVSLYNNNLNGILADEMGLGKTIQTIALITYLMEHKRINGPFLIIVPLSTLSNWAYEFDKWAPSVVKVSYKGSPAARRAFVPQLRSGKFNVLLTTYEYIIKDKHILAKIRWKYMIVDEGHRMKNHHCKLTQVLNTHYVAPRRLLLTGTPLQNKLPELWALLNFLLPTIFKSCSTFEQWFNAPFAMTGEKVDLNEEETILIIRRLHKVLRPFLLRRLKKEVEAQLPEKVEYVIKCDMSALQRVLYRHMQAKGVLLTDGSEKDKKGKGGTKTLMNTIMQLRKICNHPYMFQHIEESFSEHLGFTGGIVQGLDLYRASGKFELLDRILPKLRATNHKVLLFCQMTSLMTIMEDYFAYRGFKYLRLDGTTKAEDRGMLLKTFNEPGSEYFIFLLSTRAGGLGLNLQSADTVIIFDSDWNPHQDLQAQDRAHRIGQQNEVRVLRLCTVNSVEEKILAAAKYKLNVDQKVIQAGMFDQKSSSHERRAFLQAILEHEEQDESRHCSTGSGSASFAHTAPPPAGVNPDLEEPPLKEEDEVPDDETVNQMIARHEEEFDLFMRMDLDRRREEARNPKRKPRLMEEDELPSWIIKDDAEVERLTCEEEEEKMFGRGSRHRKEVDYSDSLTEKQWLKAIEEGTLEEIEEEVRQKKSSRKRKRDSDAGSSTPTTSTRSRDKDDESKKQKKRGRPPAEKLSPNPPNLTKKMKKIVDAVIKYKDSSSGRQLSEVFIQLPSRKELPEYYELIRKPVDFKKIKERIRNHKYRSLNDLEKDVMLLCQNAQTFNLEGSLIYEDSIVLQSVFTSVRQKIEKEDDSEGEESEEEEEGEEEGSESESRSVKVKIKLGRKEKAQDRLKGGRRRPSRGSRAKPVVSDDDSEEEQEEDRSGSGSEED

Structure (SMILES)	DC50 [1] [nM]	Dmax [1] [%]	DC50 [2] [nM]	Dmax [2] [%]	Fold Selectivity SMARCA4/2 [2]
O=C1CCC(c2ccc(N3CC[C@H](CCN4CC5(C4)CN(C(=O)C4(c6ccccc6)CCN(c6cnnc(-c7ccccc7O)c6)CC4)C5)C3)nc2)C(=O)N1 (mixture of isomers) [Example 181, (3RS)-3-{6-[(3S)-3-[2-(6-{1-[6-(2-hydroxyphenyl)pyridazin-4-yl]-4-phenylpiperidine-4-carbonyl}-2,6-diazaspiro[3.3]heptan-2-yl)ethyl]pyrrolidin-1-yl]pyridin-3-yl}piperidine-2,6-dione]	317	42.3	19.6	72.3	16
CN(C(=O)C1(Oc2ccccc2)CCN(c2cnnc(-c3ccccc3O)c2)CC1)C1CCN(CC2CCN(c3ccc([C@H]4CCC(=O)NC4=O)cc3)CC2)C2(CC2)C1 (mixture of isomers) [Example 168, N-[(7RS)-4-[(1-{4-[(3R)-2,6-dioxopiperidin-3-yl]phenyl}piperidin-4-yl)methyl]-4-azaspiro[2.5]octan-7-yl]-1-[6-(2-hydroxyphenyl)pyridazin-4-yl]-N-methyl-4-phenoxypiperidine-4-carboxamide]	113	77.3	18.4	90.6	6
CN(C(=O)C1(c2cnn(C)c2)CCN(c2cnnc(-c3ccccc3O)c2)CC1)C1CCN(C2COC3(CCN(c4ccc([C@H]5CCC(=O)NC5=O)cc4)CC3)C2)CC1 (mixture of isomers) [Example 64, N-{1-[(3RS)-8-{4-[(3R)-2,6-dioxopiperidin-3-yl]phenyl}-1-oxa-8-azaspiro[4.5]decan-3-yl]piperidin-4-yl}-1-[6-(2-hydroxyphenyl)pyridazin-4-yl]-n-methyl-4-(1-methyl-1H-pyrazol-4-yl)piperidine-4-carboxamide]		30.4	5.51	81.3	1815
CC(C)c1cc(C2(C(=O)N(C)C3CCN(CC4CCN(c5ccc(C6CCC(=O)NC6=O)cc5)CC4)CC3)CCN(c3cnnc(-c4ccccc4O)c3)CC2)no1 (racemic) [Example 98, rac-N-{1-[(1-{4-[(3R)-2,6-dioxopiperidin-3-yl]phenyl}piperidin-4-yl)methyl]piperidin-4-yl}-1-[6-(2-hydroxyphenyl)pyridazin-4-yl]-N-methyl-4-[5-(propan-2-yl)-1,2-oxazol-3-yl]piperidine-4-carboxamide]	57.9	58.1	5.55	86.7	10
O=C1CC[C@H](c2ccc(N3CCC(CN4CCN(C(=O)C5(c6ccccc6)CCN(c6cnnc(-c7ccccc7O)c6)CC5)CCC4C(F)(F)F)CC3)cc2)C(=O)N1 (stereo partly drawn) [Example 53, (3R)-3-(4-(4-((4-(1-(6-(2-hydroxyphenyl)pyridazin-4-yl)-4-phenylpiperidine-4-carbonyl)-7-(trifluoromethyl)-1,4-diazepan-1-yl)methyl)piperidin-1-yl)phenyl)piperidine-2,6-dione]		9.06		47.2	1
O=C1CC[C@@H](c2ccc(C3CCN(CC(=O)N4C[C@@H]5[C@H](C4)[C@H]5C(=O)NCC4(c5ccccc5)CCN(c5cnnc(-c6ccccc6O)c5)CC4)CC3)cc2)C(=O)N1 (racemic) [Example 73, (1R,5S,6S)-3-[2-(4-{4-[(3RS)-2,6-dioxopiperidin-3-yl]phenyl}piperidin-1-yl)acetyl]-N-({1-[6-(2-hydroxyphenyl)pyridazin-4-yl]-4-phenylpiperidin-4-yl}methyl)-3-azabicyclo[3.1.0]hexane-6-carboxamide]		21	11	79.8	910
